Laboratory results taken from ChEMBL document CHEMBL1140283, “Novel, potent small-molecule inhibitors of the molecular chaperone Hsp90 discovered through structure-based design” (J Med Chem, 2005).

Assays:
HCT-116 [1] = test: Inhibitory concentration against cell proliferation of human HCT116 cells; assay type: functional
[2] = target: Heat shock protein HSP 90-alpha (Homo sapiens, UniProt P07900); test: Inhibitory concentration against activity of Hsp90 was determined by fluorescence polarization (FP) assay
[3] = target: ATP-dependent molecular chaperone HSC82 (Saccharomyces cerevisiae S288c, UniProt P15108); test: Inhibitory concentration against ATPase activity of Hsp90 of Saccharomyces cerevisiae was determined by ATPase activity assay
Sequence of ATP-dependent molecular chaperone HSC82 (P15108 whole entry): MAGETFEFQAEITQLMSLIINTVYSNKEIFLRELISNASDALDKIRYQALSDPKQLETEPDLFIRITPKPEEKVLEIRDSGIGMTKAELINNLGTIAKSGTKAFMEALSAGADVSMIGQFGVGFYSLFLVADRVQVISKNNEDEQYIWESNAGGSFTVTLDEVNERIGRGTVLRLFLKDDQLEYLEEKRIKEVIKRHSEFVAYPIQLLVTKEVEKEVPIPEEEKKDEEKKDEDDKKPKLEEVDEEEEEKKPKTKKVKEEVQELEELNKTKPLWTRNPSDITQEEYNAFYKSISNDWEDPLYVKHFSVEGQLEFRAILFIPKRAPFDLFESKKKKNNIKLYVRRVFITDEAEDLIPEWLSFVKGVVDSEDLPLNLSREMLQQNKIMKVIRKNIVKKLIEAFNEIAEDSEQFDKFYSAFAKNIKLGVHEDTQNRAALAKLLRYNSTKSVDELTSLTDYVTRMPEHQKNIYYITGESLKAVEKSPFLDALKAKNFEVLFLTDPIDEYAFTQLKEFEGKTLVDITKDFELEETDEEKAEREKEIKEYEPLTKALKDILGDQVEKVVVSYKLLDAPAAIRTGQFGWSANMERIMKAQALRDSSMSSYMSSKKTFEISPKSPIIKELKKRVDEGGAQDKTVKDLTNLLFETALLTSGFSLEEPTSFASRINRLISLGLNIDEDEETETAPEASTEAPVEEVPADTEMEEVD

HCT-116 [4] = test: Inhibitory concentration against cell proliferation of human HCT116 cell; assay type: functional
[5] = Homo sapiens, HCT-116, read-out: GI50

| Compound | GI50 (HCT-116 [1]; [5]) | IC50 [2] | IC50 [3] | GI50 (HCT-116 [1]) | GI50 (HCT-116 [4]) |
| --- | --- | --- | --- | --- | --- |
| Cc1n[nH]c(-c2ccc(O)cc2O)c1-c1ccc2c(c1)OCCO2 | 34800 nM | 4730 nM | 23000 nM | – | – |
| CCNC(=O)c1[nH]nc(-c2cc(Br)c(O)cc2O)c1-c1ccc(OC)cc1 | 938 nM | – | 390 nM | – | – |
| Cc1[nH]nc(-c2cc(Cl)c(O)cc2O)c1-c1ccc2c(c1)OCCO2 | 14900 nM | – | 650 nM | – | – |
| COc1ccc(-c2c(-c3ccc(O)cc3O)n[nH]c2C)cc1 | 33300 nM | – | 36900 nM | – | – |
| COc1ccc(-c2c(C)n[nH]c2-c2cc(Br)c(O)cc2O)cc1 | 6100 nM | 62 nM | 1900 nM | – | – |
| CCNC(=O)c1[nH]nc(-c2cc(Cl)c(O)cc2O)c1-c1ccc(OC)cc1 | – | – | 140 nM | – | – |
| COc1ccc(-c2c(-c3cc(Cl)c(O)cc3O)n[nH]c2C(=O)NC(C)C)cc1 | 1900 nM | 120 nM | 1500 nM | – | – |
| COc1ccc(-c2c(-c3cc(Cl)c(O)cc3O)n[nH]c2C(N)=O)cc1 | 1100 nM | 53 nM | 420 nM | – | – |
| COc1ccc(-c2c(C)n[nH]c2-c2cc(Cl)c(O)cc2O)cc1 | 6700 nM | 150 nM | 1700 nM | – | – |
| CCc1cc(-c2n[nH]c(C)c2-c2ccc3c(c2)OCCO3)c(O)cc1O | 5800 nM | – | 5700 nM | – | – |
| CNC(=O)c1[nH]nc(-c2cc(Cl)c(O)cc2O)c1-c1ccc(OC)cc1 | 680 nM | 39 nM | 110 nM | – | – |
| COc1ccc(-c2c(-c3cc(Cl)c(O)cc3O)n[nH]c2C(=O)O)cc1 | – | 510 nM | 2300 nM | > 80000 nM | – |
| C[C@@H]1C[C@H]2O[C@@H]2/C=C\C=C\C(=O)Cc2c(Cl)c(O)cc(O)c2C(=O)O1 [RADICICOL] | – | – | 200 nM | – | 130 nM |
| C=CCNC1=C2C[C@@H](C)C[C@H](OC)[C@H](O)[C@@H](C)/C=C(\C)[C@H](OC(N)=O)[C@@H](OC)/C=C\C=C(/C)C(=O)NC(=CC1=O)C2=O [TANESPIMYCIN] | – | – | 13400 nM | – | 160 nM |
